Measurements as given in PubChem BioAssay AID2060885 (Molecular Pharmacology Branch, DTP, NCI, 2025).
Values joined by “and” are separate entries in the source; they are usually repeats but may differ in a detail not shown here. Equal entries are not always repeated.

Test system: NCI-H23 complex spheroids with HUVEC/MSC, viability
Test: Anticancer human tumor NCI-H23 cell line growth inhibition [RAS];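 for viability, T/C: 100% = DMSO vehicle control viability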
Details: for viability, T/C: stronger effect = lower value
Source text: RAS pathway inhibitors in Combinations in Complex Spheroids
A high-throughput screen of multi-cell type tumor spheroids was designed to identify active combinations of RAS pathway inhibitors and targeted small molecules. Complex spheroids include a stromal component modeled by human endothelial cells (HUVEC) and fibroblasts modeled by human mesenchymal stem cells (MSCs). The concentration ranges selected for each drug and investigational agent were based upon clinically achievable concentrations if the clinical Cmax of the agent was known.
Compounds. The drugs and investigational agents: abemaciclib (NSC768073), cobimetinib (NSC768068), divarasib (GDC6063, NSC841802), docetaxel (NSC628503), GDC-1971 (RLY-1971, NSC841576), gemcitabine (NSC613327), inavolisib (NSC800729), ipatasertib (NSC767898), KB-0742 (NSC834161), MRTX-1133 (NSC836407), osimertinib (NSC779217), RMC-4630 (NSC839698), RMC-6236 (NSC851965), RMC-6291 (NSC852671), Ro-3306 (NSC812927), sapanisertib (NSC764658), SN-38 (NSC673596), staurosporine (NSC755774), SY5609 (NSC837396), and tovorafenib (DAY101, NSC766906), were obtained from the National Cancer Institute (NCI) Developmental Therapeutics Program Chemical Repository. The FDA-approved anticancer drug set is available from the NCI Developmental Therapeutics Program. […] The stock solutions were prepared in dimethyl sulfoxide (DMSO, Sigma-Aldrich, St. Louis, MO, cat. D2650) at 800-fold the tested concentration and stored at -70 degrees C prior to their use. All drugs and investigational agents were tested over a range starting from a high concentration at or near the clinical Cmax and decreasing in half-log increments. If the clinical Cmax for an agent had not been determined, the highest concentration tested was 10 microM.
Cell Culture. All cells were maintained in an incubator at 37 degrees C and 5% CO2 with 95% humidity. The PDC lines were cultured according to standard operating procedures established by the NCI PDMR. All PDCs were thawed and cultured in Matrigel-coated flasks prepared with a working solution of 1X Ham's F-12 nutrient mix, without supplementation (Invitrogen, Waltham, MA, cat. 11765054), 100 U/mL penicillin-streptomycin (Invitrogen, cat. 15140122), and 2.5% Matrigel (Corning Inc., Corning, NY, cat. 354248) for the first three passages. The 362531-283-R-J2-PDC and 782815-120-R-J1-PDC lines were cultured in 6C/Colon 1B media, which includes advanced DMEM/F-12 (Thermo Fisher Scientific, cat. 12634028), 10 mM HEPES (Thermo Fisher Scientific, cat. 15630080), 1X GlutaMAX supplement (Thermo Fisher Scientific, cat. 35050061), 0.1 mg/mL primocin (InvivoGen, San Diego, CA, cat. ant-pm-2), 10% defined fetal bovine serum, heat inactivated (HyClone Laboratories Inc., Logan, UT, cat. SH30070.03HI), 50% L-WRN conditioned media (ATCC, cat. CRL-3276), 1.25 mM N-Acetyl-L-cysteine (Sigma-Aldrich, cat. A9165), 10 mM nicotinamide (Sigma-Aldrich, cat. N0636), 1X B-27 supplement (Thermo Fisher Scientific, cat. 17504044), 1X N-2 supplement (Thermo Fisher Scientific, cat. 17502048), 50 ng/mL human EGF (Thermo Fisher Scientific, cat. PHG0311), and 10 microM Y-27632 dihydrochloride (Tocris Bioscience, cat. 1254). The K12877-001-R-J1-PDC line was cultured in 6I media, which includes all 6C/Colon 1B media plus 10 ng/mL human FGF-10 (PeproTech, cat. 100-26), 1 ng/mL human FGF-2 (PeproTech, cat. 100-18B), 1 µM prostaglandin E2 (Tocris Bioscience, cat. 2296), […] hydrocortisone (Sigma-Aldrich, cat. H4001), and […] bovine insulin (Sigma-Aldrich, cat. I6634). The K86415-001-R-J1-PDC line was cultured in 6D media, which includes all 6C/Colon 1B media components minus the L-WRN conditioned media. The 485176-168-R4-J1-PDC was cultured in PANC media, which includes all 6C/Colon 1B media plus 100 ng/mL human FGF-10 (PeproTech, cat. 100-26), 500 nM SB-431542 (Selleckchem, cat. S1067), and 10 nM gastrin (Tocris Bioscience, cat. 3006). […]

[1] = curve of first compound, second compound 0.000949 µM
[2] = curve of first compound, second compound 0.003 µM
[3] = curve of first compound, second compound 0.00949 µM
[4] = curve of first compound, second compound 0.03 µM
[5] = curve of first compound, second compound 0.0949 µM
[6] = curve of first compound, second compound 0.3 µM
[7] = second compound 0.000949 µM, first compound 0.0316 µM
[8] = second compound 0.000949 µM, first compound 0.1 µM
[9] = second compound 0.000949 µM, first compound 0.316 µM
[10] = second compound 0.000949 µM, first compound 1 µM
[11] = second compound 0.003 µM, first compound 0.0316 µM
[12] = second compound 0.003 µM, first compound 0.1 µM
[13] = second compound 0.003 µM, first compound 0.316 µM
[14] = second compound 0.003 µM, first compound 1 µM
[15] = second compound 0.00949 µM, first compound 0.0316 µM
[16] = second compound 0.00949 µM, first compound 0.1 µM
[17] = second compound 0.00949 µM, first compound 0.316 µM
[18] = second compound 0.00949 µM, first compound 1 µM
[19] = second compound 0.03 µM, first compound 0.0316 µM
[20] = second compound 0.03 µM, first compound 0.1 µM
[21] = second compound 0.03 µM, first compound 0.316 µM
[22] = second compound 0.03 µM, first compound 1 µM
[23] = second compound 0.0949 µM, first compound 0.0316 µM
[24] = second compound 0.0949 µM, first compound 0.1 µM
[25] = second compound 0.0949 µM, first compound 0.316 µM
[26] = second compound 0.0949 µM, first compound 1 µM
[27] = second compound 0.3 µM, first compound 0.0316 µM
[28] = second compound 0.3 µM, first compound 0.1 µM
[29] = second compound 0.3 µM, first compound 0.316 µM
[30] = second compound 0.3 µM, first compound 1 µM

## CCN1CCN(Cc2ccc(Nc3ncc(F)c(-c4cc(F)c5nc(C)n(C(C)C)c5c4)n3)nc2)CC1 + CCn1c(-c2cc(N3CCN(C)CC3)cnc2C(C)OC)c2c3cc(ccc31)-c1csc(n1)CC(NC(=O)C1CC1C)C(=O)N1CCCC(N1)C(=O)OCC(C)(C)C2
[1]
  IC50: < 0.00316 µM
[2]
  IC50: < 0.00316 µM
[3]
  IC50: < 0.00316 µM
[4]
  IC50: < 0.00316 µM
[5]
  IC50: < 0.00316 µM
[6]
  IC50: < 0.00316 µM
Second compound 0.000949 µM, first compound 0.00316 µM
  viability, T/C: 37.3%
Second compound 0.000949 µM, first compound 0.01 µM
  viability, T/C: 32.9%
[7]
  viability, T/C: 18.3%
[8]
  viability, T/C: 20.1%
[9]
  viability, T/C: 17.9%
[10]
  viability, T/C: 12.9%
Second compound 0.003 µM, first compound 0.00316 µM
  viability, T/C: 29.6%
Second compound 0.003 µM, first compound 0.01 µM
  viability, T/C: 22.1%
[11]
  viability, T/C: 16%
[12]
  viability, T/C: 16.8%
[13]
  viability, T/C: 14.3%
[14]
  viability, T/C: 12.3%
Second compound 0.00949 µM, first compound 0.00316 µM
  viability, T/C: 29%
Second compound 0.00949 µM, first compound 0.01 µM
  viability, T/C: 21.5%
[15]
  viability, T/C: 17.2%
[16]
  viability, T/C: 16.2%
[17]
  viability, T/C: 12.9%
[18]
  viability, T/C: 10.4%
Second compound 0.03 µM, first compound 0.00316 µM
  viability, T/C: 23.1%
Second compound 0.03 µM, first compound 0.01 µM
  viability, T/C: 17.9%
[19]
  viability, T/C: 18.9%
[20]
  viability, T/C: 14%
[21]
  viability, T/C: 9.41%
[22]
  viability, T/C: 14.5%
Second compound 0.0949 µM, first compound 0.00316 µM
  viability, T/C: 16.1%
Second compound 0.0949 µM, first compound 0.01 µM
  viability, T/C: 16%
[23]
  viability, T/C: 13.7%
[24]
  viability, T/C: 10.7%
[25]
  viability, T/C: 10.1%
[26]
  viability, T/C: 13.1%
Second compound 0.3 µM, first compound 0.00316 µM
  viability, T/C: 14.8%
Second compound 0.3 µM, first compound 0.01 µM
  viability, T/C: 16.5%
[27]
  viability, T/C: 12.8%
[28]
  viability, T/C: 10.4%
[29]
  viability, T/C: 10.6%
[30]
  viability, T/C: 12.6%

## C[C@@H](NC(=O)c1ncnc(N)c1Cl)c1ncc(C(=O)Nc2cc(C(F)(F)F)c(Cl)cn2)s1
Compound 0.0316 µM
  viability, T/C: 107% [middle of 4 runs]
Compound 0.1 µM
  viability, T/C: 106% and 109% (2×) and 116%
Compound 0.316 µM
  viability, T/C: 108% [middle of 4 runs]
Compound 1 µM
  viability, T/C: 101% (2×) and 99.7% and 106%
Compound 3.16 µM
  viability, T/C: 90.6% [middle of 4 runs]
Curve of compound
  IC50: > 10 µM

## Cc1nc(N2CCC3(CC2)COC(C)C3N)c(CO)nc1Sc1ccnc(N)c1Cl (stereo not given) + CCn1c(-c2cccnc2C(C)OC)c2c3cc(ccc31)N1CCOC(CC(NC(=O)C(C(C)C)N(C)C(=O)C3(F)CCN(C(=O)C#CC(C)(C)N(C)C)CC3)C(=O)N3CCCC(N3)C(=O)OCC(C)(C)C2)C1
[1]
  IC50: < 0.0316 µM
[2]
  IC50: < 0.0316 µM
[3]
  IC50: < 0.0316 µM
[4]
  IC50: < 0.0316 µM
[5]
  IC50: < 0.0316 µM
[6]
  IC50: < 0.0316 µM
[7]
  viability, T/C: 27.2%
[8]
  viability, T/C: 21%
[9]
  viability, T/C: 13.6%
[10]
  viability, T/C: 15.3%
Second compound 0.000949 µM, first compound 3.16 µM
  viability, T/C: 12.3%
Second compound 0.000949 µM, first compound 10 µM
  viability, T/C: 9.03%
[11]
  viability, T/C: 25.1%
[12]
  viability, T/C: 20.2%
[13]
  viability, T/C: 16.4%
[14]
  viability, T/C: 16.7%
Second compound 0.003 µM, first compound 3.16 µM
  viability, T/C: 12.2%
Second compound 0.003 µM, first compound 10 µM
  viability, T/C: 8.35%
[15]
  viability, T/C: 24%
[16]
  viability, T/C: 21.4%
[17]
  viability, T/C: 18%
[18]
  viability, T/C: 14.4%
Second compound 0.00949 µM, first compound 3.16 µM
  viability, T/C: 11.5%
Second compound 0.00949 µM, first compound 10 µM
  viability, T/C: 8.24%
[19]
  viability, T/C: 22.4%
[20]
  viability, T/C: 19.1%
[21]
  viability, T/C: 17.7%
[22]
  viability, T/C: 11.7%
Second compound 0.03 µM, first compound 3.16 µM
  viability, T/C: 9.09%
Second compound 0.03 µM, first compound 10 µM
  viability, T/C: 9.82%
[23]
  viability, T/C: 20.3%
[24]
  viability, T/C: 20.6%
[25]
  viability, T/C: 15.1%
[26]
  viability, T/C: 13.4%
Second compound 0.0949 µM, first compound 3.16 µM
  viability, T/C: 8.28%
Second compound 0.0949 µM, first compound 10 µM
  viability, T/C: 9.12%
[27]
  viability, T/C: 20%
[28]
  viability, T/C: 17.1%
[29]
  viability, T/C: 18.1%
[30]
  viability, T/C: 11.3%
Second compound 0.3 µM, first compound 3.16 µM
  viability, T/C: 7.7%
Second compound 0.3 µM, first compound 10 µM
  viability, T/C: 9.33%
